According to patent US20160303009A1, “HAIR CARE COMPOSITION” (CONOPCO, INC., D/B/A UNILEVER, priority 2013, published 2016):

System: trypsin
Assay: Trypsin activity, fluorescence assay (EnzChek Protease Assay Kit E6639)
Type: biochemical
Settings: trypsin 100 μg/ml, 50 mM Tris-HCl pH 8.0
Experimental: Typsin activity was assessed using a commercial assay employing fluorescence measurement (EnzChek® Protease Assay Kit E6639 from Molecular Probes). The assayed solutions contained trypsin (100 μg/ml) and various amounts of the zinc salts in 50 mM Tris-HCl (pH 8.0).

| Compound | Protease inhibition (salt concentration 0.0001 wt %) [%] | Protease inhibition (salt concentration 0.001 wt %) [%] | Protease inhibition (salt concentration 0.01 wt %) [%] | Protease inhibition (salt concentration 0.1 wt %) [%] | Protease inhibition (salt concentration 1 wt %) [%] |
| --- | --- | --- | --- | --- | --- |
| Zinc Gluconate | −4 | 10 | 28 | 94 | 94 |
| O.O.O.O.O.O.O.O=S(=O)([O-])[O-].[Zn+2] [Zinc Sulfate Heptahydrate] | 4 | 14 | 33 | 92 | 93 |
| [Cl-].[Cl-].[Zn+2] [Zinc Chloride] | 7 | 20 | 69 | 93 | 96 |
